# Laboratory results taken from US20010027175A1, “Use of certain drugs for treating nerve root injury” (priority 1998, published 2001).
# How the values were obtained:
# [1] = test system: nucleus pulposus-related effects on adjacent nerve roots; settings: literature refs 38, 2, 3, 69; cited from earlier work
# [2] = target: inducible nitrogen oxide synthetase (Homo sapiens, UniProt P35228); settings: by inhibiting inducible nitrogen oxide synthetase; cited from earlier work
# [3] = test system: nucleus pulposus-induced reduction of nerve root conduction velocity (sacrococcygeal cauda equina); test: Series-3: nerve root conduction velocity seven days after autologous nucleus pulposus application to the cauda equina; assay type: in vivo; settings: pig; for NCV (m/s ± SD): seven days after nucleus pulposus application, mean ± SD; for block of nucleus pulposus induced nerve injury (in words): seven days, systemic treatment
# Description: Series-3: Thirteen pigs had autologous nucleus pulposus placed onto their sacrococcygeal cauda equina similar to series-2. Five pigs (bodyweight 25 kg) received Remicade^R (infliximab) 100 mg i.v. preoperatively, and 8 pigs received EnbrelR (etanercept) 12.5 mg s.c. preoperatively and additionally 12.5 mg s.c. three days after the operation. Seven days after the nucleus pulposus-application the nerve root conduction velocity was determined over the application zone by local electrical stimulation according to series-2. Five pigs (bodyweight 25 kg) received the human/murine monoclonal antibody Remicade^R (infliximab, […]) 100 mg i.v. preoperatively, and 8 pigs received Enbrel^R (etanercept, […]) 12.5 mg s.c. preoperatively and additionally 12.5 mg s.c. three days after the operation. Seven days after the nucleus pulposus-application the nerve root conduction velocity was determined over the application zone by local electrical stimulation according to series-2. […] No non-treated animals were included in the series-3 due to the pre-existing knowledge of nerve conduction velocity after seven days of either nucleus pulposus or fat (control) application. The statistical difference between the groups, infliximab, and etanercept, nucleus pulposus without treatment (positive control from previous data) and application of retroperitoneal fat (negative control from previous data) was assessed by using ANOVA and Fisher's PLSD at 5%.
# [4] = test system: nucleus pulposus-induced reduction of nerve root conduction velocity (sacrococcygeal cauda equina); test: Series-2: nerve root conduction velocity three days after autologous nucleus pulposus application to the cauda equina; assay type: in vivo; settings: pig, mean ± SD
# Description: Series-2: Nucleus pulposus was harvested from lumbar discs and applied to the sacrococcygeal cauda equina in 13 pigs autologously. […] Three days after the application the nerve root conduction velocity was determined over the application zone by local electrical stimulation.
# Thirteen pigs, (body weight 25-30 kg) received an intramuscular injection of 20 mg/kg body weight of Ketala (ketamine 50 mg/ml, Parke-Davis, Morris Plains, N.J.) and an intravenous injection of 4 mg/kg body weight of Hypnodil^R (methomidate chloride 50 mg/ml, AB Leo, Helsingborg, Sweden) and 0.I mg/kg body weight of Stresnil^R (azaperon 2 mg/ml, Janssen Pharmaceutica, Beerse, Belgium). […]
# Three days after the application, the pigs were reanaesthetized by an intramuscular injection of 20 mg/kg body weight of Ketalar^R and an intravenous injection of 35 mg/kg body weight of Pentothal^R (Thiopental sodium, Abbott lab, Chicago, Ill.). […] Local tissue temperature was continuously monitored and maintained at 37.5-38.0° C. by means of a heating lamp. […]
# The person performing the neurophysiologic analyses was unaware of the experimental protocol for the individual animal, and after finishing the complete study the data were arranged in the three experimental groups and statistical differences between the groups were assessed by Student's t-test. […]
# Sequence of inducible nitrogen oxide synthetase (P35228 whole entry): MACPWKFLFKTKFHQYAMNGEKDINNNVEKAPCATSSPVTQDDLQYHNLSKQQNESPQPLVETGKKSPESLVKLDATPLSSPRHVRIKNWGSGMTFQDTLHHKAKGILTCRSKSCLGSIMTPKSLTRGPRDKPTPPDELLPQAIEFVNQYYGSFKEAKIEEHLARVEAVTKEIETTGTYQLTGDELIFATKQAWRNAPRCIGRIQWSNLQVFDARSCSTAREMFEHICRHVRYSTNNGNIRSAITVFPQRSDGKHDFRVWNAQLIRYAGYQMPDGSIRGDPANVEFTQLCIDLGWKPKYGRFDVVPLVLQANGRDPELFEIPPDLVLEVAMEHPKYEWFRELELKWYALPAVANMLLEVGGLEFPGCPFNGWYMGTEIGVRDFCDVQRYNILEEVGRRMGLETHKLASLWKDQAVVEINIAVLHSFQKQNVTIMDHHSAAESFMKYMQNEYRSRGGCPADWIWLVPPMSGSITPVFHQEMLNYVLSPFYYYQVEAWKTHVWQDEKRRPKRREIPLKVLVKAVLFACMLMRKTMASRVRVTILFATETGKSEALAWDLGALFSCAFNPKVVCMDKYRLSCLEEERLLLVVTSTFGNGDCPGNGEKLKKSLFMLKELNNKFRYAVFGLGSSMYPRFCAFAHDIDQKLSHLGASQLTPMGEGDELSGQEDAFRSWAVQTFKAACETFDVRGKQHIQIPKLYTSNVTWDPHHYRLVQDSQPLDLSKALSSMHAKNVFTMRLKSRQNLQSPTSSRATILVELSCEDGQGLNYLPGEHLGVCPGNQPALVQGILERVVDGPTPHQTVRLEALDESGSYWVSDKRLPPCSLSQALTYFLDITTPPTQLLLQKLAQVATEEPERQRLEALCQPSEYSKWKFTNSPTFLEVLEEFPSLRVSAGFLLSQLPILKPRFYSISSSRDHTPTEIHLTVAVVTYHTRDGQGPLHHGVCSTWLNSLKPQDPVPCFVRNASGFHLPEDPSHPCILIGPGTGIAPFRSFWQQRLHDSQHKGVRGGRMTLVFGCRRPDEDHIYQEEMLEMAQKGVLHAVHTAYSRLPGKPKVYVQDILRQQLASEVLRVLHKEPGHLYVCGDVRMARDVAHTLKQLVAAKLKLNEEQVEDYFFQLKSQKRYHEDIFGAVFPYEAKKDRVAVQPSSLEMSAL
compound,measurement,setting,value
COc1ccc2c(c1)c(CC(=O)O)c(C)n2C(=O)c1ccc(Cl)cc1 [indomethacin],block of nucleus pulposus-related effects (in words),[1],slightly less efficiently
N=C(N)NN [Aminoguanidine],inhibition of release of nitrogen oxide (NO) at nerve root injuries (in words),[2],inhibit the release of nitrogen oxide (NO)
cyclosporin A,block of nucleus pulposus-related effects (in words),[1],blocked efficiently
infliximab [Remicade^R],NCV (m/s ± SD),[3],79 ± 15 m/s
same,block of nucleus pulposus induced nerve injury (in words),[3],blocked the nucleus pulposus induced nerve injury efficiently
CCN(CC)CC(=O)Nc1c(C)cccc1C [lidocaine],block of nucleus pulposus-related effects (in words),[1],slightly less efficiently
etanercept [Embrel^R],NCV (m/s ± SD),[3],78 ± 14 m/s
same,block of nucleus pulposus induced nerve injury (in words),[3],blocked the nucleus pulposus induced nerve injury efficiently
"C[C@H]1c2cccc(O)c2C(=O)C2=C(O)[C@]3(O)C(=O)C(C(N)=O)=C(O)[C@@H](N(C)C)[C@@H]3[C@@H](O)[C@@H]21 [Doxycycline, doxycycline]",NCV (m/s ± SD),[4],76 ± 9 m/s
